ChEMBL document CHEMBL1153619, “The role of phenolic hydroxy groups in the free radical scavenging activity of betalains” (J Nat Prod, 2009)

How the values were obtained:
[1] = ABTS radical scavenging activity assessed as Trolox equivalent antioxidant capacity index at pH 7 by spectrophotometry; assay type: physicochemical
[2] = Antioxidant activity assessed as Trolox molar equivalence for reduction of Fe(III) at pH 3.6 by ferric reducing antioxidant power assay; assay type: functional

| SMILES | Activity [1] | Activity [2] |
| --- | --- | --- |
| O=C(O)C1=C/C(=C\C=N/CCc2ccc(O)cc2)C[C@@H](C(=O)O)N1 | 4 | 1.1 |
| Oc1ccc(/C=C/c2cc(O)cc(O)c2)cc1 [RESVERATROL] | 2.7 |  |
| O=C(O)C1=C/C(=C\C=N/CCc2ccccc2)C[C@@H](C(=O)O)N1 | 2.3 | 1.1 |
| O=C(O[C@@H]1Cc2c(O)cc(O)cc2O[C@@H]1c1cc(O)c(O)c(O)c1)c1cc(O)c(O)c(O)c1 [EPIGALOCATECHIN GALLATE] | 4.8 |  |
| O=C(O)C1=C/C(=C\C=N/CCc2ccc(O)c(O)c2)C[C@@H](C(=O)O)N1 |  | 3.3 |
| CCC/N=C\C=C1/C=C(C(=O)O)N[C@H](C(=O)O)C1 |  | 1.1 |
| O=C(O)C1=C/C(=C\C=N/CCc2cccc(O)c2)C[C@@H](C(=O)O)N1 | 4.1 | 2.7 |
